Laboratory results taken from US9345677B2, “Compositions, methods and kits relating to HER-2 cleavage” (Incyte Corporation, priority 2003, dated 2016).

Experiments:
BT474 cells = experiment: Cell proliferation assay (cell counting, BrdU incorporation); assay type: cell-based, human; conditions: Her-2 overexpressing BT474 cells
Description: Proliferation assays were routinely performed with two protocols: cell counting and BrdU incorporation assay. For cell counting, cells (1×10^5) were seeded in each well of 12 well plates and cultured overnight. Then, cells were treated for 6 days with drugs and compounds as indicated in individual experiments. Culture media were replaced with fresh media containing the same concentrations of drugs and compounds after the first 3 days of treatment. Viable cells were counted with hemacytometers immediately after trypan blue staining.
The BrdU incorporation assay was performed using a colorimetric Cell Proliferation ELISA kit per manufacturer's instruction (#1647229, Roche Molecular Biochemicals), measuring DNA synthesis in proliferating cells. Briefly, cells (5−10×10^3) were seeded in each well of 96 well plates and cultured overnight. […] Finally, 100 μl/well of substrate solution was added and the results were obtained using a microplate reader (Spectra Max PLUS, Molecular Devices) during color development. Multiple readings at various time points were obtained and results in the linear range of the assay were obtained. […]
After varying periods of cell culture (2-6 days), the cell cultures were harvested and cell growth was assessed by cell count and BRdU incorporation using standard protocols.

MMP2 = target: T1, MMP2 (Homo sapiens, UniProt P08253); experiment: MMP2 fluorogenic peptide biochemical assay
T1 construct: purchased R&D Systems 902-MP
T1 sequence (P08253 110-660): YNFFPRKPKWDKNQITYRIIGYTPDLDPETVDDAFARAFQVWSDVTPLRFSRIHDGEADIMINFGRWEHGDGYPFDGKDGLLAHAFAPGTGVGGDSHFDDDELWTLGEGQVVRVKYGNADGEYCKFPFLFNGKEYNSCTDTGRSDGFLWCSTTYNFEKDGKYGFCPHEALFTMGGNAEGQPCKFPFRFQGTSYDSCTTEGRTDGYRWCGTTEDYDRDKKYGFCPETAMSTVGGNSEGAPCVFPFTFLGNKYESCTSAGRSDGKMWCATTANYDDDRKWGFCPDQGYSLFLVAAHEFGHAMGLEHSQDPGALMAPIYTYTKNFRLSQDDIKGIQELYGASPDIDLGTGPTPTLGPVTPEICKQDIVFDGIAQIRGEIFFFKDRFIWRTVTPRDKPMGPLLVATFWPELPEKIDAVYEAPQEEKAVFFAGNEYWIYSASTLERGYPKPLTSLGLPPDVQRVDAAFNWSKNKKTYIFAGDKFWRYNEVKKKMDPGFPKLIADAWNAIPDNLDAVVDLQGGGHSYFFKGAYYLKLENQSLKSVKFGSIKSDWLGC

MMP3 = target: T2, MMP3 (Homo sapiens, UniProt P08254); experiment: MMP3 fluorogenic peptide biochemical assay
T2 construct: purchased R&D Systems 513-MP
T2 sequence (P08254 100-477): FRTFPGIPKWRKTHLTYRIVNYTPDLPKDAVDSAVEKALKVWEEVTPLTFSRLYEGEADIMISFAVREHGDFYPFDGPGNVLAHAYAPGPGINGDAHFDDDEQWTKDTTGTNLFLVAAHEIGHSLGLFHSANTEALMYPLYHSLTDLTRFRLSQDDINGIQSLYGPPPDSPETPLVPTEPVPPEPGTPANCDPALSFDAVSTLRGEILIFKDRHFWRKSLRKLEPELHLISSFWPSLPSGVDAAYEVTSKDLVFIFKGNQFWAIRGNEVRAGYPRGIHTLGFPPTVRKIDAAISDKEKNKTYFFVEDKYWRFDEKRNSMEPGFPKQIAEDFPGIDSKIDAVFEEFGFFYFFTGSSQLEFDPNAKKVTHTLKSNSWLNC
Excerpt: Source of enzymes for biochemical assays: Except for ADAM17 and MT1-MMP, all recombinant human MMPs and ADAMs were obtained from R&D Systems (Minneapolis, Minn.). […] MT1-MMP was obtained from US Biological (Swampscott, Mass.) with a catalog number of M2429. Porcine ADAM17 was purified in house from porcine spleen.
Substrates for biochemical assays: Fluorogenic Peptide substrate, (7-methoxycoumarin-4-yl)acetyl-Pro-Leu-Gly-Leu-(3-[2,4-dinitrophenyl]-L-2,3-diaminopropionyl)-Ala-Arg-NH2 (SEQ ID NO: 46), was obtained from R&D Systems (Minneapolis, Minn.) with a catalog number of ES001. It was used as substrate for MMP1, MMP2, MMP7, MMP8, MMP9, MMP12, MMP13, and MT1-MMP. Fluorogenic Peptide substrate, (7-methoxycoumarin-4-yl)acetyl-Arg-Pro-Lys-Pro-Val-Glu-Nva-Trp-Arg-Lys(2,4-dinitrophenyl)-NH2 (SEQ ID NO: 47), was obtained from R&D Systems with a catalog number of ES002. It was used as substrate for MMP3 and MMP10. […]
In general, 5 mM compound stock was prepared in DMSO. […] The plate was read on a plate reader with excitation of 320 nm and emission of 405 nm. Percentage of inhibition was calculated for each concentration and IC50 value was generated from curve fitting. […]

MMP2 activity (MMP2): inactive
MMP3 activity (MMP3): inactive
SMILES: Cc1cc([N+](=O)[O-])ccc1N1CCN(C(=O)[C@@H]2[C@@H](C(=O)NO)CC3(CC3)CN2C)CC1 [Compound 5, (6S,7S)-N-hydroxy-5-methyl-6-{[4-(2-methyl-4-nitrophenyl)piperazin-1-yl]-carbonyl}-5-azaspiro[2.5]octane-7-carboxamide]
effect on antiproliferative activity of a suboptimal dose of Herceptin (BT474 cells): synergistically enhances
